In patent US20210238169A1, “PROCESS FOR PREPARING A COMPOUND OF FORMULA (XIII)” (PULMOCIDE LIMITED, priority 2014, published 2021):

What was measured:
[1] = test system: Aspergillus fumigatus (ATCC 13073); assay: Macrophage and neutrophil accumulation into BALF of Aspergillus fumigatus infected mice; type: in vivo
Protocol: Aspergillus fumigatus (ATCC 13073 [strain: NIH 5233], American Type Culture Collection, Manassas, Va., USA) was grown on Malt agar (Nissui Pharmaceutical, Tokyo, Japan) plates for 6-7 days at RT (24±1° C.). Spores were aseptically dislodged from the agar plates and suspended in sterile distilled water with 0.05% Tween 80 and 0.1% agar. On the day of infection, spore counts were assessed by haemocytometer and the inoculum was adjusted to obtain a concentration of 1.67×10^8 spores mL^−1 of physiological saline.
On day 0, animals were infected with the spore suspension (35 μL intra-nasally).
Test compounds were administered intra-nasally ([…]) once daily, 30 min before infection on day 0 and then on days 1, 2 and 3 (representing prophylactic treatment) or on days 1, 2 and 3 only (representing therapeutic treatment). For extended prophylactic treatment, test compounds (35 μL of a suspension of 0.0032 or 0.016 mg/mL in physiological saline) were administered intra-nasally once daily for seven days; then 30 min before infection on day 0, and thereafter, either on days 1, 2 and 3 after infection, or on day 0 only. The effects of these treatment paradigms were compared with those obtained when treatment was restricted to one day and 30 min before inoculation and then on days 1, 2 and 3 post infection; or reduced still further to one day and 30 min before infection only.
Six hours after the last dose, animals were anesthetised, the trachea was cannulated and BALF was collected. The total number of alveolar cells was determined using a haemocytometer, and the numbers of alveolar macrophages and neutrophils were determined by FACS analysis (EPICS® ALTRA II, Beckman Coulter, Inc., Fullerton, Calif., USA) using anti-mouse MOMA2-FITC (macrophage) or anti-mouse 7/4 (neutrophil), respectively, as previously reported (Kimura et al., 2013). The levels of IFN-γ and IL-17 in BALF, and IL-6 and TNFα in serum were determined using Quantikine® mouse IFN-γ, IL-17, IL-6 or TNF-α ELISA kit (R&D systems, Inc., Minneapolis, Minn., USA) respectively. MDA, an oxidative stress marker, was assayed using OxiSelect® TBARS Assay Kits (MDA Quantitation; Cell Biolabs Inc, San Diego, Calif., USA). Aspergillus GM in serum was determination using Platelia GM-EIA kits (Bio-Rad Laboratories, Redmond, Wash., USA). Cut-off index was calculated by the formula: Cut-off index=OD in sample/OD in cut-off control provided in kit. For tissue fungal load assays, 100 mg of lung tissue was removed aseptically and homogenized in 0.2 mL of 0.1% agar in sterile distilled water. Serially diluted lung homogenates were plated on Malt agar plates (50 μL/plate), and incubated at 24±1° C. for 72 to 96 h. The colonies of A. fumigatus on each plate was counted and the fungal titre presented as CFU per gram of lung tissue.

BEAS2B cells = assay: Cell viability: resazurin assay; type: cell-based, human; conditions: concentrations up to, at least, 10 μM
Protocol: BEAS2B cells were seeded in 384-well plates (100 μL; 3000/well/; BD Falcon, Catalogue No 353962) in RPMI-LHC8 (RPMI-1640 and LHC8 media combined in equal proportions) one day before experimentation. For cell-free control wells, RPMI-LHC8 (100 μL) was added. Test compounds (0.5 μL of a DMSO solution) were added to give a final DMSO concentration of 0.5% using an Integra VIAFLO 96 (Integra, Zizers, Switzerland). BEAS2B cells were incubated with each test compound for 1 day (37° C./5% CO2 in RPMI-LHC8). After addition of resazurin stock solution (5 μL, 0.04%) the plates were incubated for a further 4 hr (37° C./5% CO2). The fluorescence of each well at 545 nm (excitation) and 590 nm (emission) was determined using a multi-scanner (Clariostar: BMG Labtech). The percentage loss of cell viability was calculated for each well relative to vehicle (0.5% DMSO) treatment. Where appropriate, a CC50 value was calculated from the concentration-response curve generated from the concentration-response curve for each test compound.

[2] = Prophylactic Treatment, 0.08 mg/mL intra-nasally
[3] = Prophylactic Treatment, 0.4 mg/mL intra-nasally
[4] = Prophylactic Treatment, 2 mg/mL intra-nasally
[5] = Therapeutic Treatment, 0.4 mg/mL intra-nasally
[6] = Therapeutic Treatment, 2 mg/mL intra-nasally
[7] = Therapeutic Treatment, 10 mg/mL intra-nasally

## Cc1cc(N2CCN(c3ccc(C(=O)Nc4ccc(F)cc4)cc3)CC2)ccc1OC[C@@H]1CO[C@@](Cn2cncn2)(c2ccc(F)cc2F)C1 [Compound (I), 4-(4-(4-(((3R,5R)-5-((1H-1,2,4-triazol-1-yl)methyl)-5-(2,4-difluorophenyl)tetrahydrofuran-3-yl)methoxy)-3-methylphenyl)piperazin-1-yl)-N-(4-fluorophenyl)benzamide]
[1]; [2]
  Macrophage cell numbers in BAL: 0.40 ± 0.15 × 10^5/mL
  Macrophage cell numbers in BAL, % inhibition: 38%
  Neutrophil cell numbers in BAL: 0.37 ± 0.04 × 10^5/mL
  Neutrophil cell numbers in BAL, % inhibition: 24%
[1]; [3]
  Macrophage cell numbers in BAL: 0.32 ± 0.07 × 10^5/mL
  Macrophage cell numbers in BAL, % inhibition: 51%
  Neutrophil cell numbers in BAL: 0.26 ± 0.12 × 10^5/mL
  Neutrophil cell numbers in BAL, % inhibition: 47%
[1]; [4]
  Macrophage cell numbers in BAL: 0.26 ± 0.05 × 10^5/mL
  Macrophage cell numbers in BAL, % inhibition: 60%
  Neutrophil cell numbers in BAL: 0.22 ± 0.04 × 10^5/mL
  Neutrophil cell numbers in BAL, % inhibition: 55%
[1]; [5]
  Macrophage cell numbers in BAL: 0.43 ± 0.05 × 10^5/mL
  Macrophage cell numbers in BAL, % inhibition: 34%
  Neutrophil cell numbers in BAL: 0.38 ± 0.04 × 10^5/mL
  Neutrophil cell numbers in BAL, % inhibition: 22%
[1]; [6]
  Macrophage cell numbers in BAL: 0.40 ± 0.11 × 10^5/mL
  Macrophage cell numbers in BAL, % inhibition: 38%
  Neutrophil cell numbers in BAL: 0.34 ± 0.05 × 10^5/mL
  Neutrophil cell numbers in BAL, % inhibition: 31%
[1]; [7]
  Macrophage cell numbers in BAL: 0.32 ± 0.07 × 10^5/mL
  Macrophage cell numbers in BAL, % inhibition: 51%
  Neutrophil cell numbers in BAL: 0.27 ± 0.08 × 10^5/mL
  Neutrophil cell numbers in BAL, % inhibition: 45%
BEAS2B cells
  effect on the viability of BEAS2B bronchial epithelial cells: no or little effect
